System: guinea pigs
Test: Threshold shift by auditory brainstem response (ABR) testing after 120 dB SPL octave band noise
Type: in vivo, guinea pigs (NIH outbred strain)
Details: FIG. 1-3 comparison between treatments
Procedure: In guinea pig studies, hearing loss and the efficacy of the composition of the subject invention for treating hearing loss is measured as an average difference in threshold shift from baseline threshold sensitivity at 4, 8, and 16 kHz, as compared to an untreated control, after exposure to 120 decibel SPL Octave Band Noise centered at 4 kHz for five hours.
To obtain those results, the composition is typically injected each day, twice a day, for three days prior to exposure to the noise and injected again each day for at least five days, typically up to ten days, subsequent to the exposure to the noise. The threshold shift is measured 10 days after exposure to the noise using auditory brainstem response (ABR) testing.
In order to determine efficacy of the composition of the present invention in treating hearing loss, baseline threshold sensitivity of the guinea pigs is measured binaurally using auditory brainstem response testing at 4, 8, and 16 kHz.
For Example 1, the guinea pigs are first treated each day, twice a day, for three days prior to exposure to 120-dB SPL Octave Band Noise centered at 4 kHz for 5 hours. The noise causes trauma to middle or inner ears of the guinea pigs and is sufficient to cause permanent threshold shift, i.e., permanent hearing loss. […] Ten days after the noise exposure, auditory sensitivity is measured using ABR. […]

| SMILES | effect in minimizing threshold shift (additive effect), in words |
| --- | --- |
| Cc1c(C)c2c(c(C)c1O)CCC(C)(C(=O)O)O2 (centres unmarked) [Trolox®] | do not exhibit the same additive effect |
| O=C([O-])c1ccccc1O.[Na+] [salicylate, sodium salicylate] | do not exhibit the same additive effect |
